{"source": "patent US10526343B2", "about": "“Heterocyclic systems and pharmaceutical applications thereof” (University of Sharjah, priority 2018, dated 2020)", "key": {"MRSA-1 [1]": {"system": "MRSA-1", "experiment": "Time-kill study", "assay_type": "cell-based, Staphylococcus aureus", "protocol": "Time-kill study: Compound 1o was tested for the time required to kill the bacterial strain MRSA-1. A time-kill assay was performed by the broth micro-dilution method in accordance with the CLSI guidelines. Inoculum suspensions with approximately 5×10^5 CFU/mL of exponentially growing bacterial cells were incubated in each well of a 96-well plate. […] Aliquots of 20 μL were removed from the inoculum culture after timed intervals of incubation (i.e. 0, 30 minutes, 1, 2, 4, 6, 8, and 24 hours), and serial 10-fold dilutions were prepared in 0.85% sodium chloride solution. Then, 10-100 μL of each dilution (as appropriate) were spread on the surface of Mueller-Hinton agar plates and incubated at 37° C. for 24 hours. Plate count technique was used to determine the number of viable cells for each time point. The experiments were performed in triplicate. Meropenem and ciprofloxacin were used as quality control antibiotics."}, "S. aureus (ATCC 25923)": {"system": "S. aureus (ATCC 25923)", "experiment": "MIC by broth microdilution", "assay_type": "cell-based", "details": "Staphylococcus aureus, ATCC25923", "how_it_was_run": "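CLSI broth microdilution in Mueller-Hinton broth, two-fold dilutions over 100–0.78 μg/mL, 20 hours at 37° C. CellTiter-Blue then added for 4 hours at 37° C.; MIC was the lowest concentration preventing the blue-to-pink colour change.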"}, "MRSA-1 [2]": {"system": "MRSA-1", "experiment": "Examination of bacterial cell walls by atomic force microscope (AFM)", "assay_type": "cell-based, Staphylococcus aureus", "details": "MRSA-1, 25 μg/mL, 4 hours", "protocol": "Atomic force microscopy (AFM) provides three-dimensional images of the surfaces of living microbial cells in real time and in high resolution with minimal sample preparation. Compound 1o was tested against the bacterial strain MRSA-1 and the slides were examined under AFM. Specifically, FIGS. 5A1 and 5B1 show an untreated MRSA-1 strain at scan sizes of 10 μm^2 and […], respectively, and FIGS. 5A2 and 5B2 show a MRSA-1 strain treated with compound 1o at scan sizes of 10 μm^2 and 5 μm^2, respectively. […] Rapid bacterial killing coupled with cell wall damage as evidenced in the AFM images indicate the action of compound 1o on the cell wall, as reported for the known antibiotics like polymyxin, which rapidly breaks the cell membrane of Gram-negative bacteria, causing fast cell death.\nCompound 1o was tested against the bacterial strain MRSA-1. Exponentially growing bacterial cells were prepared in Mueller-Hinton broth at a concentration of approximately 10^8 CFU/mL by adjusting the turbidity to 0.5 with a McFarland™ densitometer (DEN-1B, Grant-Bio, UK). […]"}, "[3]": {"system": "Pseudomonas aeruginosa (ATCC 27853)", "experiment": "Cell viability assay (resazurin) screening for antibacterial activity", "assay_type": "cell-based", "set-up": "key: Positive: A positive result indicates antibacterial activity expressed as growth inhibition; Negative: a negative result indicates no antibacterial activity expressed as bacterial growth at the tested concentration", "details": "single high concentration of 1 mg/mL"}}}
{"smiles": "COC(=O)CC1COc2c(cc3c4c2CCCN4CCC3)-c2c(NC(C)(C)C)n3c(-c4ccc(Br)cc4)c(C)sc3[n+]21", "note": "(centres unmarked) [Compound 1o]", "values": [{"measurement": "time of exposure at which killing was achieved", "setting": "MRSA-1 [1]; 12.5 μg/mL", "value": 6, "unit": "h"}, {"measurement": "time of exposure at which killing was achieved", "setting": "MRSA-1 [1]; 25 μg/mL", "value": 2, "unit": "h"}, {"measurement": "time of exposure at which killing was achieved", "setting": "MRSA-1 [1]; 3.125-6.25 μg/mL", "value": 24, "unit": "h"}, {"measurement": "time of exposure to complete elimination of MRSA growth", "setting": "MRSA-1 [1]; concentration ≥50 μg/mL", "value": "≤ 30", "unit": "min"}, {"measurement": "time of exposure at which killing was achieved", "setting": "MRSA-1 [1]; concentrations between 50-100 μg/mL", "value": 0.5, "unit": "h"}, {"measurement": "MIC", "setting": "S. aureus (ATCC 25923)", "value": 3.12, "unit": "µg/mL"}, {"measurement": "bacterial cell morphology under AFM", "setting": "MRSA-1 [2]", "value": "Bacterial cell shape distortion and leakage of the intracellular contents"}, {"measurement": "antibacterial activity, Pseudomonas aeruginosa", "setting": "[3]", "value": "Negative"}]}
